The source of these data is patent US7772206B2, “Methods and compositions for the treatment of autoimmune disorders using clofarabine” (Genzyme Corporation, priority 2002, dated 2010).

The nature of series [1]: maximum tolerated dose of clofarabine. The settings on record: species and study not stated. Type of series: in vivo. As for the experimental part:
It may be necessary to use dosages of the active ingredient outside the ranges disclosed herein in some cases, as will be apparent to those of ordinary skill in the art, but the dosage should not fall below 1.0 mg/kg/day. The maximum tolerated doses of clofarabine is approximately 80 mg/kg per day. Furthermore, it is noted that the clinician or treating physician will know how and when to interrupt, adjust, or terminate therapy in conjunction with individual patient response.

A short description of series [2]: degradation of the drug during dissolution, lyophilization and drying of the parenteral formulation. The following applies: dissolution in tertiary butanol/Water for Injection at 5° C., lyophilization at −16° C. for 48 hours, drying at 15° C. under high vacuum for 48 hours, protected from light. Type of series: physicochemical. As for the experimental part: Clofarabine, 9.86 g, is wetted/partially dissolved with 600 mL of a 9:1 mixture of tertiary butanol and Water for Injection USP which is pre-cooled to 5° C. Once the drug powder is completely wetted, dissolution is completed by the addition of 600 mL of a 1:9 mixture of tertiary butanol and Water for Injection and 766 mL of a 1:1 mixture of tertiary butanol and Water for Injection which likewise is pre-cooled to 5° C. thereby making the final solution a 1:1 mixture. The dissolution is carried out under protection from light.
The solution formed above is promptly lyophilized in a Virtis INOTOP lyophilizer at −16° C. under light protectant conditions over a period of 48 hours. The resultant lyophilized product (lyophile) is then further dried at 15° C. under high vacuum for 48 hours. […] The lyophile is packaged under sterile conditions into 30 mL vials, each containing 50 mg of drug, 50 mg of mannitol and sodium hydroxide to adjust the pH to 7.7 and standard excess to allow for vial/needle/syringe loss.

As to `Nc1nc(Cl)nc2c1ncn2[C@@H]1O[C@H](CO)[C@@H](O)[C@@H]1F` [Clofarabine, 2 Chloro 9 (2 deoxy 2 fluoro β D arabinofuranosyl)adenine], in series [1], the maximum tolerated dose entry is recorded as “approximately 80 mg/kg per day”. For the same molecule, the “degradation of the drug” value in series [2] was “No detectable degradation”.
